Test results reported in ChEMBL document CHEMBL4346758 (2019).
Calls of active or inactive are those of the source. The calls are words filed in the database; no cut-off is given here.

Columns and labels:
Influenza A virus [1] = assay: microbe, parasite or virus in culture; settings: A/Puerto Rico/8/1934(H1N1), A549
[2] = Cytotoxicity against human A549 cells assessed as reduction in cell viability by MTT assay; format: cell-based
[3] = tested on: Influenza A virus (A/Thailand/Kan353/2004(H5N1)); assay: Inhibition of Influenza A virus (A/Thailand/Kan353/2004(H5N1)) neuraminidase N1 using fluorogenic 2'-(4-Methylumbelliferyl)-alpha-D-N-acetylneuraminic acid sodium salt hydrate as substrate measured after 30 mins by microplate reader analysis
[4] = tested on: Vesicular stomatitis virus; assay: Antiviral activity against VSV-G enveloped pseudovirus infected in MDCK cells assessed as inhibition of viral entry; format: functional, organism-based
H5N1 subtype [5] = format: functional, organism-based; settings: 5 uM
Influenza A virus [6] = assay: Inhibition of hemagglutinin 5 in Influenza A virus assessed as inhibition of chicken erythrocytes aggregation
H5N1 subtype [7] = assay: Antiviral activity against Influenza A virus (A/Thailand/Kan353/2004(H5N1)) infected in MDCK cells assessed as inhibition of viral entry; format: functional, organism-based
Influenza A virus [8] = format: functional, organism-based; settings: H5N1
MDCK = assay: Cytotoxicity against MDCK cells assessed as cell viability; format: cell-based, Canis lupus familiaris; settings: dog
[9] = Binding affinity to HA2 subunit by SPR assay; parameters: species or system Influenza A virus
Hemagglutinin = Hemagglutinin (Influenza A virus, UniProt B4URE7); assay: Binding affinity to hemagglutinin by SPR assay
Chain of Hemagglutinin (B4URE7 whole entry): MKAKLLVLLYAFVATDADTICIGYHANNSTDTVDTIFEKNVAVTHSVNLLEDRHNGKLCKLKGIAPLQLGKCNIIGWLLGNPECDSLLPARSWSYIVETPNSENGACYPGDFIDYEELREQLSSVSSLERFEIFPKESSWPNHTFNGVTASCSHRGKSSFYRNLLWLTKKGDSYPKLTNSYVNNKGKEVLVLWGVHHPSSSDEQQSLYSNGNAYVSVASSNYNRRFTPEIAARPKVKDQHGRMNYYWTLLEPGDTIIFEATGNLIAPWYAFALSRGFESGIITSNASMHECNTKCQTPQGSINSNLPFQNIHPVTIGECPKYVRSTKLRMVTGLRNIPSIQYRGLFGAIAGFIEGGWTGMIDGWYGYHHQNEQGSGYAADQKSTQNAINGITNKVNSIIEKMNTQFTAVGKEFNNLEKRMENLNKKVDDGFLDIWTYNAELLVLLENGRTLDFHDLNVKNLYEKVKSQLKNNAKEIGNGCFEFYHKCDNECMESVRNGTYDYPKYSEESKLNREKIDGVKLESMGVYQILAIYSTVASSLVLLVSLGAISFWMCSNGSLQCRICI

SMILES	IC50 (Influenza A virus [1])	CC50 [2]	inhibition [3]	inhibition [4]	inhibition (H5N1 subtype [5])	inhibition (Influenza A virus [6])	IC50 (H5N1 subtype [7])	inhibition (Influenza A virus [8])	Activity (MDCK)	Kd [9]	Kd (Hemagglutinin)
C[C@H]1[C@H](C)CC[C@]2(C(=O)O)CC[C@]3(C)C(=CC[C@@H]4[C@@]5(C)CC[C@H](O[C@@H]6O[C@H](CO)[C@@H](O[C@@H]7O[C@@H](C)[C@H](O)[C@@H](O)[C@H]7O)[C@H](O)[C@H]6O[C@@H]6O[C@@H](C)[C@H](O)[C@@H](O)[C@H]6O)C(C)(C)[C@@H]5CC[C@]43C)[C@H]12	38.1 µM	66.6 µM	–	–	–	–	–	–	–	–	–
C[C@H]1[C@H](C)CC[C@]2(C(=O)NCCN3CCCCC3)CC[C@]3(C)C(=CC[C@@H]4[C@@]5(C)CC[C@H](O[C@@H]6O[C@H](CO)[C@@H](O[C@@H]7O[C@@H](C)[C@H](O)[C@@H](O)[C@H]7O)[C@H](O)[C@H]6O[C@@H]6O[C@@H](C)[C@H](O)[C@@H](O)[C@H]6O)C(C)(C)[C@@H]5CC[C@]43C)[C@H]12	21.3 µM	> 200 µM	inactive	–	–	–	–	–	–	–	–
C[C@H]1[C@H](C)CC[C@]2(C(=O)NCCN3CCOCC3)CC[C@]3(C)C(=CC[C@@H]4[C@@]5(C)CC[C@H](O[C@@H]6O[C@H](CO)[C@@H](O[C@@H]7O[C@@H](C)[C@H](O)[C@@H](O)[C@H]7O)[C@H](O)[C@H]6O[C@@H]6O[C@@H](C)[C@H](O)[C@@H](O)[C@H]6O)C(C)(C)[C@@H]5CC[C@]43C)[C@H]12	18.2 µM	> 200 µM	inactive	inactive	Active	inactive	3.88 µM	Dose-dependent effect	Non-Toxic	0.00017 µM	0.0161 µM
CCOC(=O)C1=C[C@@H](OC(CC)CC)[C@H](NC(C)=O)[C@@H](N)C1 [OSELTAMIVIR]	4.61 µM	> 200 µM	–	–	–	–	–	–	–	–	–
